Measured values published in article PMC11200585, “Prospects for Prostate Cancer Chemotherapy: Cytotoxic Evaluation and Mechanistic Insights of Quinolinequinones with ADME/PK Profile” (Biomedicines, 2024).

Experiments:
[1] = Log D (experimental, n-octanol); type: physicochemical; conditions: n-octanol (aqueous phase not stated)
K-562 = assay: NCI-60 five-dose assay (leukemia); type: cell-based, human; conditions: SRB; for TGI: 48 h; for GI50 / LC50: Homo sapiens, K562, 48 h
[2] = Log P (experimental, n-octanol); type: physicochemical
[3] = In vivo bioavailability / pharmacokinetic study IV and PO; parameters: species or system male Sprague-Dawley rats; conditions: rat; for AUC(0-inf) / AUC(0-t) / C0 / MRT last / Vd / clearance / half-life / Cmax / Tmax: male, Sprague-Dawley, whole blood; for Tmax: median
Protocol: Using the validated Phoenix® WinNonlin® 8.3 NCA tool Version 8 or higher (Certara L.P.), USA, pharmacokinetic parameters were computed. As appropriate, Cmax, Tmax, and exposures (AUCinfinity and AUClast) were calculated. Furthermore, pharmacokinetic characteristics such as distribution volume (Vd), […] (CL), elimination half-life (T1/2), and parenteral route like (C0) were evaluated. Using dose-normalized non-intravenous exposure versus dose-normalized intravenous exposure, oral bioavailability (F%) was computed (Table 5).
S2.2. In vivo Bioavailability Study of AQQ1 and AQQ2 in Male Sprague-Dawley Rats Sprague-Dawley rats (HyLasco Biotechnology (India) Pvt. Ltd., a subsidiary of Charles River from the US) of 8-12 weeks of age (at the time of treatment), weighing between 220 and 320 g, […]
Housing: Animals were housed in polysulfonate cages in a typical research laboratory environment at 25 ± 3°C and 50%-70% relative humidity with approximately 12 h light and dark cycles maintained with an enrichment device. During the study, the animals had access to a rat maintenance diet (Altromin Spezialfutter GmbH, Germany) and purified water (UV-treated, […]
Animal experiments were conducted in accordance with the guidelines of the Committee for the Purpose of Control and Supervision of Experiments on Animals (CPCSEA), Ministry of […], Government of India, and approved by the Institutional Animal Ethics Co m m i tt e e . […] AQQ1 a n d AQQ2 in NMP (10%) + PBS (pH 7.4) qs was administered intravenously at a dose of 1 mg/kg bw (10 mL/kg). AQQ1 and AQQ2 in NMP (10%) + Cremophor EL (5%) + PEG400 (30%) + PG (20%) + PBS (pH 7.4) qs was administered PO at a dose of 5 mg/kg bw (10 mL/kg). The animal weight on the day of dosing was used to calculate the required volume of the formulation and administered to the rats.
After dosing, blood samples (~0.250 mL) were collected from the jugular vein at the following time points: 0.083 (IV only), 0.25, 0.5, 1, 2, 4, 6, 8, and 24 h using a serial sampling design (equal volumes of heparinized saline were replaced after each sample collection). The samples were collected in pre-labeled microcentrifuge tubes containing K2EDTA (20 μL of 200 mM solution […]
per mL of blood) as an anticoagulant. The blood samples were stored at -60°C until bioanalysis using the fit-for-purpose LC-MS/MS method. Pharmacokinetic parameters were calculated using the non-compartmental analysis (NCA) tool of the validated Phoenix® WinNonlin® 8.3.
Group Treatment/Route Dose (mg/kg) Dose volume (mL/kg) Stregth

UACC-257 = assay: NCI-60 five-dose assay (melanoma); type: cell-based, human; conditions: 48 h, SRB; for GI50 / LC50 (NCI-60 lethal concentration, 50% cell kill): Homo sapiens
HCT-116 cells = assay: MTT assay; type: cell-based; conditions: Homo sapiens, 24 h, mean ± SEM
Protocol: For the MTT assay, DU-145, MDA-MB-231, HCT-116, and HUVEC cells (American Type Culture Collection) were seeded at a concentration of 1 × 10^4 cells per well in 96-well plates and allowed to incubate overnight, ensuring proper adherence. Subsequently, a series of concentrations for both AQQ1 and AQQ2 (ranging from 1 to 100 µM) were added to the culture medium with a final concentration of 1% DMSO, and cells were subjected to an additional 24 h incubation period. The control group only received 1% DMSO (Biomatik, Cambridge, ON, Canada). To establish a baseline for comparison, DOXO (Saba, İstanbul, Turkey), a known chemotherapeutic agent, was administered at equivalent concentrations. Following the incubation period, MTT (3-(4,5-dimethylthiazol-2-yl)-2,5-diphenyltetrazolium bromide) (Biomatik, Canada) assay was carried out to assess cell viability. Finally, the absorbance was quantified at 590 nm using a BioTek Epoc plate reader (Biotek, Winooski, VT, USA). The derived data were analysed using GraphPad Prism 8 software to calculate the inhibitory concentration 50 (IC50) values of the test compounds.

NCI-H322M = assay: NCI-60 five-dose assay (non-small cell lung cancer); type: cell-based, human; conditions: 48 h, SRB; for GI50 / CC50: Homo sapiens; for CC50: read-out: LC50 (the source's name)
MDA-MB-435 = assay: NCI-60 five-dose assay (melanoma); type: cell-based, human; conditions: 48 h, SRB; for GI50 / CC50: Homo sapiens; for CC50: read-out: LC50 (the source's name)
[4] = In vitro metabolic stability; type: in vitro ADME, dog (Beagle); conditions: Dog liver microsomes; for % Metabolism in 30 min: 0.5 µM, 0.5 mg/mL protein; for half-life at 0.5 µM / microsomal CLint at 0.5 µM: male, Beagle, pH 7.4
Protocol: (§1) S2. ADME and PK Profiling
(§2) S2.1. In vitro Metabolic Stability Study […]
(§3) metabolic stability of AQQ1 and AQQ2. A final protein (liver microsomal) concentration of 0.5 mg/mL and final test substance (AQQ1 and AQQ2) concentration of 0.5 µM were used for the study. To the respective microsomes at a volume of 12.5 µL in the well, 2.5 µL of test substance ([…] in acetonitrile: dimethyl sulfoxide, 96:4) in the presence and absence of NADPH (50 µL, 10 mM) were added and the final volume made up to 500 µL with sodium phosphate buffer (50 mM, pH 7.4). The one without NADPH served as control. Sampling (50 µL) were done at the following time points: 0, 5, 10, 15, and 30 min for sample and at 0 and 30 min for control.
(§4) Acetonitrile (150 µL) was used as quenching solvent, internal standard (Rolipram) was added, vortexed/centrifuged and the aliquot from the supernatant was analyzed using LC-MS/MS. All the experiments were performed in duplicate.

[5] = In vitro metabolic stability; type: in vitro ADME; conditions: for % Metabolism in 30 min: 0.5 µM, 0.5 mg/mL protein; for half-life at 0.5 µM / microsomal CLint at 0.5 µM: pH 7.4
Protocol: as §1, §2, §3, §4

SMILES: COc1ccccc1NC1=C(Cl)C(=O)c2nc(C)ccc2C1=O [AQQ1]
- logD [1]: 2.37
- TGI (K-562): 2.94 µM
- GI50 (K-562): 0.29 µM
- LC50 (K-562): > 100 µM
- logP [2]: 1.85
- AUC(0-inf) ([3]; IV 1 mg/kg): 115 ± 45.7 ng·h/mL
- AUC(0-t) ([3]; IV 1 mg/kg): 77.5 ± 9.81 ng·h/mL
- C0 ([3]; IV 1 mg/kg): 90.8 ± 71.3 ng/mL
- MRT last ([3]; IV 1 mg/kg): 3.77 ± 0.279 h
- Vd ([3]; IV 1 mg/kg): 90.3 ± 40 L/kg
- clearance ([3]; IV 1 mg/kg): 161 ± 62.9 mL/min/kg
- half-life ([3]; IV 1 mg/kg): 9.35 ± 8.75 h
- AUC(0-inf) ([3]; PO 5 mg/kg): 4000 ± 179 ng·h/mL
- AUC(0-t) ([3]; PO 5 mg/kg): 3810 ± 111 ng·h/mL
- Cmax ([3]; PO 5 mg/kg): 435 ± 18.1 ng/mL
- MRT last ([3]; PO 5 mg/kg): 7.47 ± 0.367 h
- half-life ([3]; PO 5 mg/kg): 5.22 ± 0.843 h
- Tmax ([3]; PO 5 mg/kg): 0.5 h
- plasma clearance relative to normal hepatic blood flow of rats ([3]; IV 1 mg/kg): approximately 2.93 fold
- TGI (UACC-257): 3.09 µM
- GI50 (UACC-257): 1.57 µM
- LC50 (NCI-60 lethal concentration, 50% cell kill) (UACC-257): 6.11 µM
- IC50 (HCT-116 cells): 5.83 ± 0.76 µM
- TGI (NCI-H322M): 7.69 µM
- GI50 (NCI-H322M): 2.5 µM
- CC50 (NCI-H322M): 27.6 µM
- TGI (MDA-MB-435): 3.11 µM
- GI50 (MDA-MB-435): 1.7 µM
- CC50 (MDA-MB-435): 5.67 µM
- % Metabolism in 30 min [4]: 41.5%
- half-life at 0.5 µM [4]: 0.517 h
- microsomal CLint at 0.5 µM [4]: 45 µL/min/mg
- % Metabolism in 30 min ([5]; Human liver microsomes): 39.5%
- % Metabolism in 30 min ([5]; Mouse liver microsomes): 63%
- half-life at 0.5 µM ([5]; Human liver microsomes): > 0.5 h
- microsomal CLint at 0.5 µM ([5]; Human liver microsomes): 39 µL/min/mg
- half-life at 0.5 µM ([5]; Mouse liver microsomes): 0.342 h
- microsomal CLint at 0.5 µM ([5]; Mouse liver microsomes): 68.5 µL/min/mg

SMILES: COc1cc(NC2=C(Cl)C(=O)c3nc(C)ccc3C2=O)cc(OC)c1 [AQQ5]
- TGI (K-562): >100 µM
- GI50 (K-562): 0.381 µM
- LC50 (K-562): > 100 µM
- TGI (UACC-257): 2.85 µM
- GI50 (UACC-257): 1.51 µM
- LC50 (NCI-60 lethal concentration, 50% cell kill) (UACC-257): 5.37 µM
- TGI (NCI-H322M): 12.8 µM
- GI50 (NCI-H322M): 3.42 µM
- CC50 (NCI-H322M): 35.8 µM
- TGI (MDA-MB-435): 3.57 µM
- GI50 (MDA-MB-435): 1.72 µM
- CC50 (MDA-MB-435): 7.39 µM

SMILES: CCOc1ccc(NC2=C(Cl)C(=O)c3nc(C)ccc3C2=O)cc1 [AQQ3]
- TGI (K-562): >100 µM
- GI50 (K-562): 1.17 µM
- LC50 (K-562): > 100 µM
- TGI (UACC-257): 2.78 µM
- GI50 (UACC-257): 1.39 µM
- LC50 (NCI-60 lethal concentration, 50% cell kill) (UACC-257): 5.58 µM
- TGI (NCI-H322M): 3.74 µM
- GI50 (NCI-H322M): 1.68 µM
- CC50 (NCI-H322M): 8.29 µM
- TGI (MDA-MB-435): 1.53 µM
- GI50 (MDA-MB-435): 0.442 µM
- CC50 (MDA-MB-435): 3.99 µM

SMILES: CCOc1ccccc1NC1=C(Cl)C(=O)c2nc(C)ccc2C1=O [AQQ2]
- logD [1]: 2.35
- GI50 (K-562): 0.341 µM
- LC50 (K-562): > 100 µM
- logP [2]: 1.77
- AUC(0-inf) ([3]; IV 1 mg/kg): 110 ± 18.1 ng·h/mL
- AUC(0-t) ([3]; IV 1 mg/kg): 77 ± 21 ng·h/mL
- C0 ([3]; IV 1 mg/kg): 23.2 ± 12.8 ng/mL
- MRT last ([3]; IV 1 mg/kg): 6.84 ± 1.84 h
- Vd ([3]; IV 1 mg/kg): 147 ± 9.71 L/kg
- clearance ([3]; IV 1 mg/kg): 154 ± 26.9 mL/min/kg
- half-life ([3]; IV 1 mg/kg): 12.8 ± 2.95 h
- AUC(0-inf) ([3]; PO 5 mg/kg): 2370 ± 375 ng·h/mL
- AUC(0-t) ([3]; PO 5 mg/kg): 2300 ± 416 ng·h/mL
- Cmax ([3]; PO 5 mg/kg): 282 ± 79.4 ng/mL
- MRT last ([3]; PO 5 mg/kg): 6.61 ± 0.787 h
- half-life ([3]; PO 5 mg/kg): 4.72 ± 1.16 h
- Tmax ([3]; PO 5 mg/kg): 1 h
- plasma clearance relative to normal hepatic blood flow of rats ([3]; IV 1 mg/kg): approximately 2.8 fold
- volume of distribution relative to 0.7 L/kg total body fluids ([3]; IV 1 mg/kg): approximately 210 fold
- TGI (UACC-257): 2.61 µM
- GI50 (UACC-257): 1.28 µM
- LC50 (NCI-60 lethal concentration, 50% cell kill) (UACC-257): 5.34 µM
- IC50 (HCT-116 cells): 9.18 ± 0.96 µM
- TGI (NCI-H322M): 7.91 µM
- GI50 (NCI-H322M): 2.22 µM
- CC50 (NCI-H322M): 29.7 µM
- TGI (MDA-MB-435): 0.671 µM
- GI50 (MDA-MB-435): 0.266 µM
- CC50 (MDA-MB-435): 2.45 µM
- % Metabolism in 30 min [4]: 79.5%
- half-life at 0.5 µM [4]: 0.283 h
- microsomal CLint at 0.5 µM [4]: 84 µL/min/mg
- % Metabolism in 30 min ([5]; Human liver microsomes): 47%
- % Metabolism in 30 min ([5]; Mouse liver microsomes): 96.5%
- half-life at 0.5 µM ([5]; Human liver microsomes): 0.442 h
- microsomal CLint at 0.5 µM ([5]; Human liver microsomes): 52 µL/min/mg
- half-life at 0.5 µM ([5]; Mouse liver microsomes): 0.0917 h
- microsomal CLint at 0.5 µM ([5]; Mouse liver microsomes): 249 µL/min/mg
